Data on six compounds can be found in patent US9567322B2, “Substituted tetrahydropyrans and method of use” (AbbVie S.á.r.l., priority 2014, dated 2017).

The target in assay [1] is T1, F508delCFTR (Homo sapiens, UniProt P13569, DEL508-508).
T1 construct: expressed in transfected cells; host or cells: CFBE41o- (CFBE41o-F508delCFTR-HRP), doxycycline-inducible
In words: Cell Surface Expression-Horse Radish Peroxidase (CSE-HRP) assay. The format is cell-based. As to conditions: CFBE41o-F508delCFTR-HRP cells; for EC50: cell surface expression, luminescence readout, 18-24 hours at 33° C., highest concentration tested 20 μM, 8-point curve; for Maximum % activity: maximum at any tested concentration, normalized to on-plate positive control (3 μM) and DMSO. The method, boiled down:
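CFBE41o- cells expressing F508delCFTR with HRP in the fourth extracellular loop were doxycycline-induced (0.5 μg/mL) for 72 h at 37 °C, then treated 18-24 h at 33 °C with an 8-point 3-fold series from 20 μM. Surface HRP luminescence (luminol) was normalized to DMSO and positive control; EC50 came from variable-slope sigmoidal fits of triplicate plates.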

The target in assay [2] is T2, F508del/F508del CFTR (Homo sapiens, UniProt P13569, DEL508-508).
T2 construct: cells isolated from CF patients with the homozygous mutation; endogenous in cells; host or cells: primary human bronchial epithelial (hBE) cells from F508del/F508del CF patients
T2 sequence (P13569 with tags, fused parts or gaps DEL508-508): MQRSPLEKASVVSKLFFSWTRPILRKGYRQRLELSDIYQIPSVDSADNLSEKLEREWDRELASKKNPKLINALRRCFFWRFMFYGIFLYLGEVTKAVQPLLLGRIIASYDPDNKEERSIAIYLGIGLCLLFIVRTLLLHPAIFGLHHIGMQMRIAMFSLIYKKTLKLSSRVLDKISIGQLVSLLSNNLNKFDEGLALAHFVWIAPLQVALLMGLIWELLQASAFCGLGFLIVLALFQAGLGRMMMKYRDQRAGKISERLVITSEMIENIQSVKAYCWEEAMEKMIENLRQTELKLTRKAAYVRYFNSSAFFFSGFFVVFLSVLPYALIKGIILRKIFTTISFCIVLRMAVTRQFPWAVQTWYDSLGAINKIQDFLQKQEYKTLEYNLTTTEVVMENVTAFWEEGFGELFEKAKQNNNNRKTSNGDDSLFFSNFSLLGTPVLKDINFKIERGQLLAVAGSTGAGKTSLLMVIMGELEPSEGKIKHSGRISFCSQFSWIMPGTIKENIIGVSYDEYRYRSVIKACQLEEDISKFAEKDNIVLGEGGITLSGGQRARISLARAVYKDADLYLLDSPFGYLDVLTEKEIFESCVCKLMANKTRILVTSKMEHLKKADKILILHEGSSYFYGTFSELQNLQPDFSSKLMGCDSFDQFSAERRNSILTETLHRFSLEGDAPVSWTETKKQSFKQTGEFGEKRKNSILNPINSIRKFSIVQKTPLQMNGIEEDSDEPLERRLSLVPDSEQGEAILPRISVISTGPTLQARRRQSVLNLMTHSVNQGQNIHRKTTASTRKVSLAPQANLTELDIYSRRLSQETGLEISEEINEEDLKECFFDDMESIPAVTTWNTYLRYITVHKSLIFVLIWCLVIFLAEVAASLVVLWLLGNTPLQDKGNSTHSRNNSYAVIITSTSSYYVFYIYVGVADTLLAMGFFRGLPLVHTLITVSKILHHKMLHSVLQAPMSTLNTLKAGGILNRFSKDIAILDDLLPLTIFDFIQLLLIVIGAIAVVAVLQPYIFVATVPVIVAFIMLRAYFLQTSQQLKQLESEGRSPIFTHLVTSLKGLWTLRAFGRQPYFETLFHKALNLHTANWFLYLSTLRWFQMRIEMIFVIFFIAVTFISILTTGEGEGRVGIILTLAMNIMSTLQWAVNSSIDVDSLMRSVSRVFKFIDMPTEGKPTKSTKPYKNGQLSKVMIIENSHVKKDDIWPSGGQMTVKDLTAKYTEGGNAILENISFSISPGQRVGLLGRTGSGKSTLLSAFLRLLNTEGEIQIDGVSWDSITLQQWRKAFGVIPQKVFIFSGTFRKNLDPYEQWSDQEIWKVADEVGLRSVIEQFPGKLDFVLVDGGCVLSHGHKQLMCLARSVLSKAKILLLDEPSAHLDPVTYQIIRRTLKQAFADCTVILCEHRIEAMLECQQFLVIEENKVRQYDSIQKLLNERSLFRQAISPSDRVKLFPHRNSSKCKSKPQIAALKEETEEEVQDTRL
Kind of assay: Transepithelial Clamp Circuit (TECC-24) conductance assay on primary human bronchial epithelial cells. The format is cell-based. The following applies: primary hBE cells from F508del/F508delCFTR patients; for EC50: equivalent short circuit current (Ieq), correctors 18-24 hours at 37° C., with control potentiator, 6 test concentrations; for Maximum % activity: relative to positive control (3 μM) coupled with control potentiator = 100%. From the text: Transepithelial Clamp Circuit on Human Bronchial Epithelial Cells Conductance Assay:
A cell based assay using the primary human bronchial epithelial cells (hBE) was used as a secondary assay to test novel F508delCFTR correctors for their activity on primary hBE cells with F508del/F508del CFTR mutation. The assay used a TECC-24 (Transepithelial Clamp Circuit for 24 wells) instrument that measures the functionality of the mutated channel by measuring the equivalent short circuit current (Ieq) generated by the polarized epithelial cells. The instrument works by measuring the transepithelial potential difference (Vt) and transepithelial resistance (Rt) in an open circuit format, and the Ieq is calculated by using Ohms law (Ieq=Vt/Rt). The assay was run in a 24-well format and all 24-wells were measured at the same time point giving a higher throughput for this assay.
Primary human bronchial epithelial (hBE) cells from F508del/F508delCFTR patients were expanded from 1×10^6 to 250×10^6 cells (Neuberger T, Burton B, Clark H and VanGoor F; Cystic Fibrosis, Methods in Mole Biol 741; eds. Amaral M D and Kunzelmann K, 2011). For this purpose, cells isolated from CF patients with the homozygous mutation were seeded onto 24 well Corning (Cat #3378) filter plates that were coated with 3T3 conditioned media and grown at an air-liquid interface for 35 days using an Ultroser® G supplemented differentiation media. Apical surface mucus was removed 72 hours before the experiment using 3 mM dithiothreitol (DTT) in phosphate buffered saline (PBS). The apical surface was washed again 24 hours before the experiment using PBS. The cells were incubated with the desired dose response of the corrector compounds 18-24 hours at 37° C., 5% CO2. The corrector compounds are only added on the basolateral side of the epithelial cells.
On the day of measuring the corrector activity on the TECC, the cells were switched into a bicarbonate and serum free F-12 Coon's medium and allowed to equilibrate for 90 minutes in a CO2 free incubator. At the time of measurement, the apical and basolateral sides of the filter were bathed with the F-12 Coon's modification media (with 20 mM 4-(2-hydroxyethyl)-1-piperazineethanesulfonic acid (HEPES), pH 7.4 (using 1 M tris(hydroxymethyl)aminomethane (Tris)), and the measurements were made at 36.5° C. Transepithelial voltage (Vt) and transepithelial resistance (Rt) were measured using a 24 channel transepithelial current clamp (TECC-24). Current responses to the sequential addition of benzamil (apical 6 M addition; for inhibiting epithelial ENaC channel), forskolin (apical and basolateral 10 M addition; for activating the CFTR channel), control potentiator (N-(3-carbamoyl-5,5,7,7-tetramethyl-4,7-dihydro-5H-thieno[2,3-c]pyran-2-yl)-1H-pyrazole-5-carboxamide; apical and basolateral 1 M addition; for potentiating the CFTR channel) and bumetanide (basolateral 20 μM addition; for inhibiting the Na:2Cl:K co-transporter, an indirect measure of inhibiting the Cl-secretion driven by CFTR channel) were measured.
All plates contained negative controls (dimethyl sulfoxide, DMSO) which coupled with the control potentiator (N-(3-carbamoyl-5,5,7,7-tetramethyl-4,7-dihydro-5H-thieno[2,3-c]pyran-2-yl)-1H-pyrazole-5-carboxamide) sets the null response and positive controls (3 μM of 3-[(2R,4R)-4-({[1-(2,2-difluoro-1,3-benzodioxol-5-yl)cyclopropyl]carbonyl}amino)-7-methoxy-3,4-dihydro-2H-chromen-2-yl]benzoic acid) coupled with the control potentiator sets the 100% response to measure the correction of the mutated CFTR channel. The maximum percent activity is reported relative to the positive control value.
The % activity measured at each of the 6 test concentrations of the test compound was normalized to the on-plate positive control using the following formula: % activity=[(test compound response−DMSO response)/(positive control response−DMSO response)]*100 […]

T1 sequence (P13569 with tags, fused parts or gaps DEL508-508): as above

For `Cc1cc(C(=O)O)cc([C@H]2C[C@@H](NC(=O)C3(c4ccc5c(c4)OC(F)(F)O5)CC3)C[C@@H](c3ccccc3)O2)c1` (racemic) [Example 73, rac-3-[(2R,4S,6S)-4-({[1-(2,2-difluoro-1,3-benzodioxol-5-yl)cyclopropyl]carbonyl}amino)-6-phenyltetrahydro-2H-pyran-2-yl]-5-methylbenzoic acid], in assay [1], the EC50 came out at 410 nM and the Maximum % activity is reported as 90%. In assay [2], the EC50 turned out to be 330 nM and the “Maximum % activity” value stood at 91%.

Regarding `O=C(O)c1ccc([C@H]2C[C@@H](NC(=O)C3(c4ccc5c(c4)OC(F)(F)O5)CC3)C[C@@H](c3ccccc3)O2)cc1` (single isomer, unassigned) [Example 53], the figures for the EC50 in assay [1] and in assay [2] were 300 nM and 260 nM, respectively. In addition, the Maximum % activity in assay [1] was found to be 81%; in assay [2] it was 73%.

In the case of `Cc1cc(C(=O)O)ccc1[C@H]1C[C@H](NC(=O)C2(c3ccc4c(c3)OC(F)(F)O4)CC2)C[C@@H](c2ccccc2)O1` (single isomer, unassigned) [Example 65], the results for the EC50 in assay [1] and in assay [2] were 370 nM and 200 nM, respectively.

Take `O=C(O)c1cccc([C@H]2C[C@@H](NC(=O)C3(c4ccc5c(c4)OC(F)(F)O5)CC3)CCO2)c1` [Example 19, 3-[(2R,4S)-4-({[1-(2,2-difluoro-1,3-benzodioxol-5-yl)cyclopropyl]carbonyl}amino)tetrahydro-2H-pyran-2-yl]benzoic acid]: in assay [1], the midpoint of the response, the EC50, lay at 2230 nM and the Maximum % activity worked out at 100%. Also, in assay [2], the EC50 turned out to be 1030 nM and the “Maximum % activity” value came out at 87%.

As for `O=C(O)c1cccc([C@H]2C[C@@H](NC(=O)C3(c4ccc5c(c4)OC(F)(F)O5)CC3)C[C@@H](c3ccccc3)O2)c1` [Example 27, 3-[(2R,4S,6S)-4-({[1-(2,2-difluoro-1,3-benzodioxol-5-yl)cyclopropyl]carbonyl}amino)-6-phenyltetrahydro-2H-pyran-2-yl]benzoic acid], in assay [1], the EC50 turned out to be 280 nM and the Maximum % activity was 109%. In assay [2], the concentration giving a half-maximal response (EC50) stood at 100 nM and the “Maximum % activity” value came to 94%.

Consider `O=C(O)c1ccc([C@H]2C[C@@H](NC(=O)C3(c4ccc5c(c4)OC(F)(F)O5)CC3)CCO2)cc1` [Example 31, 4-[(2R,4S)-4-({[1-(2,2-difluoro-1,3-benzodioxol-5-yl)cyclopropyl]carbonyl}amino)tetrahydro-2H-pyran-2-yl]benzoic acid], for which, in assay [1], the EC50 was 770 nM and the Maximum % activity is recorded as 102%. Also, in assay [2], the EC50 was found to be 1030 nM and the “Maximum % activity” value was determined as 65%.
